Molecular target: T1, human mAChR M4 (Homo sapiens, UniProt P08173)
T1 construct: expressed in transfected cells; host or cells: CHO-K1 (ATCC), stably expressing hM4 and Gqi5
T1 sequence (P08173 1-479): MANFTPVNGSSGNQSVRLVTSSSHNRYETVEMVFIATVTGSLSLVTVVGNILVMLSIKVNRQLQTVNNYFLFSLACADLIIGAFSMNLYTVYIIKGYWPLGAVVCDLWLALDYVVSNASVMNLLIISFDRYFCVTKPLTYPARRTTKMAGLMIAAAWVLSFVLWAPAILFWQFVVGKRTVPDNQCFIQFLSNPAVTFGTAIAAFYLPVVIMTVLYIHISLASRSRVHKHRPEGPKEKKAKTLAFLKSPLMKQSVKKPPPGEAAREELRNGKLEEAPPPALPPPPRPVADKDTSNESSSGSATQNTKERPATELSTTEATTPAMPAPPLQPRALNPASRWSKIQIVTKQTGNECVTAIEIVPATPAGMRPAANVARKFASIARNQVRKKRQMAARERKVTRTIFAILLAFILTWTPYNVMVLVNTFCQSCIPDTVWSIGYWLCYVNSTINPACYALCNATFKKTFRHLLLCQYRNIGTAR
Assay: mAChR M4 cell-based functional assay: calcium flux (Fluo-4, FDSS), positive allosteric modulator activity on the EC20 acetylcholine response, hM4-Gqi5 CHO-K1 cells
Settings: for Emax at 30 µM: CHO-K1, human M4, % ACh maximum at 30 μM; for EC50: human M4, PAM activity on EC20 acetylcholine response, calcium flux, read-out: Human M4 EC50
How it was run: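 CHO-K1 cells stably expressing human M4 with chimeric Gqi5, loaded with Fluo-4 AM for 50 min at 37° C. Compounds (11-point, 1:3 dilutions) added first, then an acetylcholine EC20 at 144 s; calcium read on FDSS at 1 Hz. EC50 is the half-maximal increase above the EC20 baseline, four-parameter logistic fit.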

| SMILES | Emax at 30 µM | EC50 |
| --- | --- | --- |
| Fc1ccc2ncnc(N3CCc4ncc(-c5ccnn5C5COC5)cc4C3)c2c1 [Compound 265, 6-fluoro-4-(3-(1-(oxetan-3-yl)-1H-pyrazol-5-yl)-7,8-dihydro-1,6-naphthyridin-6(5H)-yl)quinazoline] | 76% | 500 nM |
| Fc1cc2ncnc(N3CCc4ncc(-c5ccnn5C5COC5)cc4C3)c2cc1F [Compound 269, 6,7-difluoro-4-(3-(1-(oxetan-3-yl)-1H-pyrazol-5-yl)-7,8-dihydro-1,6-naphthyridin-6(5H)-yl)quinazoline] | 79% | 1600 nM |
| Cn1nc(C(F)(F)F)cc1-c1cnc2c(c1)CN(c1ncnc3cc(F)c(F)cc13)CC2 [Compound 271, 6,7-difluoro-4-(3-(1-methyl-3-(trifluoromethyl)-1H-pyrazol-5-yl)-7,8-dihydro-1,6-naphthyridin-6(5H)-yl)quinazoline] | 80% | 950 nM |
| CN1CCN(c2cnc3c(c2)CN(c2ncnc4ccc(F)cc24)CC3)CC1=O [Compound 272, 4-(6-(6-fluoroquinazolin-4-yl)-5,6,7,8-tetrahydro-1,6-naphthyridin-3-yl)-1-methylpiperazin-2-one] | 92% | 1150 nM |
| CN1CCN(c2cnc3c(c2)CN(c2ncnc4cc(F)c(F)cc24)CC3)CC1=O [Compound 273, 4-(6-(6,7-difluoroquinazolin-4-yl)-5,6,7,8-tetrahydro-1,6-naphthyridin-3-yl)-1-methylpiperazin-2-one] | 84% | 880 nM |
| Cc1nc(N2CCc3ncc(N4CCN(C)C(=O)C4)cc3C2)c2cc(Cl)ccc2n1 [Compound 274, 4-(6-(6-chloro-2-methylquinazolin-4-yl)-5,6,7,8-tetrahydro-1,6-naphthyridin-3-yl)-1-methylpiperazin-2-one] | 82% | 650 nM |
| Fc1ccc2ncnc(N3CCc4ncc(N5CCCn6ccnc65)cc4C3)c2c1 [Compound 275, 4-(3-(6,7-dihydroimidazo[1,2-a]pyrimidin-8(5H)-yl)-7,8-dihydro-1,6-naphthyridin-6(5H)-yl)-6-fluoroquinazoline] | 73% | 2240 nM |
| Fc1ccc2ncnc(N3CCc4ncc(N5CCCn6nc(C(F)(F)F)cc65)cc4C3)c2c1 [Compound 276, 6-fluoro-4-(3-(2-(trifluoromethyl)-6,7-dihydropyrazolo[1,5-a]pyrimidin-4(5H)-yl)-7,8-dihydro-1,6-naphthyridin-6(5H)-yl)quinazoline] | 96% | 320 nM |
| Fc1cc2ncnc(N3CCc4ncc(N5CCCn6ccnc65)cc4C3)c2cc1F [Compound 277, 4-(3-(6,7-dihydroimidazo[1,2-a]pyrimidin-8(5H)-yl)-7,8-dihydro-1,6-naphthyridin-6(5H)-yl)-6,7-difluoroquinazoline] | 67% | 2630 nM |
| Fc1cc2ncnc(N3CCc4ncc(N5CCCn6nc(C(F)(F)F)cc65)cc4C3)c2cc1F [Compound 278, 6,7-difluoro-4-(3-(2-(trifluoromethyl)-6,7-dihydropyrazolo[1,5-a]pyrimidin-4(5H)-yl)-7,8-dihydro-1,6-naphthyridin-6(5H)-yl)quinazoline] | 76% | 410 nM |
| CC(C)(C)c1cc2n(n1)CCCN2c1cnc2c(c1)CN(c1ncnc3ccc(F)cc13)CC2 [Compound 279, 4-(3-(2-(tert-butyl)-6,7-dihydropyrazolo[1,5-a]pyrimidin-4(5H)-yl)-7,8-dihydro-1,6-naphthyridin-6(5H)-yl)-6-fluoroquinazoline] | 72% | 810 nM |
| Fc1ccc2ncnc(N3CCc4ncc(N5CCCn6nc(C7CC7)cc65)cc4C3)c2c1 [Compound 280, 4-(3-(2-cyclopropyl-6,7-dihydropyrazolo[1,5-a]pyrimidin-4(5H)-yl)-7,8-dihydro-1,6-naphthyridin-6(5H)-yl)-6-fluoroquinazoline] | 90% | 390 nM |
| CN1CCN(c2cnc3c(c2)CN(c2ncnc4ccc(F)cc24)CC3)CC12COC2 [Compound 283, 8-(6-(6-fluoroquinazolin-4-yl)-5,6,7,8-tetrahydro-1,6-naphthyridin-3-yl)-5-methyl-2-oxa-5,8-diazaspiro[3.5]nonane] | 99% | 700 nM |
| CN1CCN(c2cnc3c(c2)CN(c2ncnc4cc(F)c(F)cc24)CC3)CC12COC2 [Compound 284, 8-(6-(6,7-difluoroquinazolin-4-yl)-5,6,7,8-tetrahydro-1,6-naphthyridin-3-yl)-5-methyl-2-oxa-5,8-diazaspiro[3.5]nonane] | 104% | 500 nM |
| Cc1nc(N2CCc3ncc(N4CCN(C)C5(COC5)C4)cc3C2)c2cc(Cl)ccc2n1 [Compound 285, 8-(6-(6-chloro-2-methylquinazolin-4-yl)-5,6,7,8-tetrahydro-1,6-naphthyridin-3-yl)-5-methyl-2-oxa-5,8-diazaspiro[3.5]nonane] | 98% | 580 nM |
| Cc1nc(N2CCc3ncc(CC(F)(F)F)cc3C2)c2cc(Cl)ccc2n1 [Compound 287, 6-chloro-2-methyl-4-(3-(2,2,2-trifluoroethyl)-7,8-dihydro-1,6-naphthyridin-6(5H)-yl)quinazoline] | 85% | 360 nM |
| C[C@H]1CCN(c2cnc3c(c2)CN(c2ncnc4ccc(F)cc24)CC3)c2ccnn21 [Compound 289, (S)-6-fluoro-4-(3-(7-methyl-6,7-dihydropyrazolo[1,5-a]pyrimidin-4(5H)-yl)-7,8-dihydro-1,6-naphthyridin-6(5H)-yl)quinazoline] | 72% | 490 nM |

Now those with a lower EC50, led by results:

| Emax at 30 µM | EC50 | SMILES |
| --- | --- | --- |
| 88% | 160 nM | C[C@H]1CN(c2ncnc3ccc(Cl)cc23)Cc2cc(N3CCOCC3)cnc21 [Compound 263, (S)-4-(6-(6-chloroquinazolin-4-yl)-8-methyl-5,6,7,8-tetrahydro-1,6-naphthyridin-3-yl)morpholine] |
| 82% | 140 nM | CC(C)n1nccc1-c1cnc2c(c1)CN(c1ncnc3ccc(F)cc13)CC2 [Compound 264, 6-fluoro-4-(3-(1-isopropyl-1H-pyrazol-5-yl)-7,8-dihydro-1,6-naphthyridin-6(5H)-yl)quinazoline] |
| 90% | 60 nM | Cc1cnn(C)c1-c1cnc2c(c1)CN(c1ncnc3ccc(F)cc13)CC2 [Compound 266, 4-(3-(1,4-dimethyl-1H-pyrazol-5-yl)-7,8-dihydro-1,6-naphthyridin-6(5H)-yl)-6-fluoroquinazoline] |
| 81% | 200 nM | Cn1nc(C(F)(F)F)cc1-c1cnc2c(c1)CN(c1ncnc3ccc(F)cc13)CC2 [Compound 267, 6-fluoro-4-(3-(1-methyl-3-(trifluoromethyl)-1H-pyrazol-5-yl)-7,8-dihydro-1,6-naphthyridin-6(5H)-yl)quinazoline] |
| 85% | 190 nM | CC(C)n1nccc1-c1cnc2c(c1)CN(c1ncnc3cc(F)c(F)cc13)CC2 [Compound 268, 6,7-difluoro-4-(3-(1-isopropyl-1H-pyrazol-5-yl)-7,8-dihydro-1,6-naphthyridin-6(5H)-yl)quinazoline] |
| 86% | 100 nM | Cc1cnn(C)c1-c1cnc2c(c1)CN(c1ncnc3cc(F)c(F)cc13)CC2 [Compound 270, 4-(3-(1,4-dimethyl-1H-pyrazol-5-yl)-7,8-dihydro-1,6-naphthyridin-6(5H)-yl)-6,7-difluoroquinazoline] |
| 104% | 30 nM | [2H]C1([2H])N(c2cnc3c(c2)CN(c2ncnc4ccc(F)cc24)CC3)c2ccnn2C([2H])([2H])C1([2H])[2H] [Compound 281, 4-(3-(6,7-dihydropyrazolo[1,5-a]pyrimidin-4(5H)-yl-5,5,6,6,7,7-d6)-7,8-dihydro-1,6-naphthyridin-6(5H)-yl)-6-fluoroquinazoline] |
| 111% | 30 nM | [2H]C1([2H])N(c2cnc3c(c2)CN(c2ncnc4cc(F)c(F)cc24)CC3)c2ccnn2C([2H])([2H])C1([2H])[2H] [Compound 282, 4-(3-(6,7-dihydropyrazolo[1,5-a]pyrimidin-4(5H)-yl-5,5,6,6,7,7-d6)-7,8-dihydro-1,6-naphthyridin-6(5H)-yl)-6,7-difluoroquinazoline] |
| 97% | 170 nM | Fc1cc2ncnc(N3CCc4ncc(CC(F)(F)F)cc4C3)c2cc1F [Compound 286, 6,7-difluoro-4-(3-(2,2,2-trifluoroethyl)-7,8-dihydro-1,6-naphthyridin-6(5H)-yl)quinazoline] |
| 75% | 40 nM | C[C@@H]1CCN(c2cnc3c(c2)CN(c2ncnc4ccc(F)cc24)CC3)c2ccnn21 [Compound 288, (R)-6-fluoro-4-(3-(7-methyl-6,7-dihydropyrazolo[1,5-a]pyrimidin-4(5H)-yl)-7,8-dihydro-1,6-naphthyridin-6(5H)-yl)quinazoline] |
| 91% | 200 nM | CC(O)(c1cnc2c(c1)CN(c1ncnc3cc(F)c(F)cc13)CC2)C(F)(F)F (centres unmarked) [Compound 290, 2-(6-(6,7-difluoroquinazolin-4-yl)-5,6,7,8-tetrahydro-1,6-naphthyridin-3-yl)-1,1,1-trifluoropropan-2-ol] |

— patent publication US20250026752A1, “POSITIVE ALLOSTERIC MODULATORS OF THE MUSCARINIC ACETYLCHOLINE RECEPTOR M4” (Vanderbilt University, priority 2021, published 2025)
